The text below walks through data of PubChem BioAssay AID493083 (Broad Institute, 2011).

Active and inactive are the calls of the source.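 Rule for the calls: active = compounds lowering signal whose fitted AC50 is at most ten times the top tested dose; inconclusive = flat fit with moderate inhibition, or poor curve fit; inactive = the rest.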 A value given as a limit tells only on which side of the number the result lay.

The subject of the experiment is NIH3T3 R4 HSF-1 GFP reporter, heat shock, 48 h. Description: GFP reporter loss versus dox-driven RFP – NIH3T3 R4 cells, cherry-pick, set 3, dose response (AID 493083).
Broadly, the AC50 is the concentration at which the activity in the assay is half-maximal. As to `Cc1cc(C)c2nc(C(F)(F)F)c(C#N)c(N)c2c1`, the AC50 was > 19.5 µM (inactive).

Consider `COc1cc(C2CC(c3cccs3)=NN2C(=O)CCl)ccc1OC(F)F` (configuration not stated), for which the AC50 was 14.8 µM.

`CC12CCC(C/C1=N\N=C1\NC(=O)/C(=C\c3ccc(Cl)cc3)S1)C2(C)C` (configuration not stated): the AC50 is 2.4 µM.

With `COc1cccc(-c2nnc3n2N=C(C(C)(C)C)CS3)c1`, the AC50 was > 19.5 µM (inactive).

Take `CCOC(=O)Cc1nnc2c(Nc3ccccc3F)nc3nonc3n12`: the AC50 is 12.4 µM.

For the molecule `NNC(=S)NC1CC2CC1C1C=CCC21` (configuration not stated), the AC50 is > 19.5 µM (inactive).

With `O=S(=O)(C/C(=C/CO)S(=O)(=O)c1ccccc1)c1ccccc1`, the AC50 was 5.86 µM.

In the case of `Cc1c(NC(=O)C2CC(c3ccc(F)cc3)=NO2)c(=O)n(-c2ccccc2)n1C` (configuration not stated), the AC50 is > 19.5 µM (inactive).

`O=C(COC(=O)/C=C/c1ccc(C(F)(F)F)cc1)NC1CC1`: the AC50 is > 19.5 µM (inactive).

As for `CC(C)(C)c1ccc2c(c1)OC(C(=O)N/N=C\c1ccc[nH]1)CO2` (configuration not stated), the AC50 is 0.848 µM.

Consider `O=C(CCl)Nc1cc(SCC(O)CO)cc([N+](=O)[O-])c1` (configuration not stated), for which the AC50 was 5.73 µM.

As for `COc1ccc(C[C@H]2NC[C@H](O)[C@H]2OC(C)=O)cc1`, the AC50 is 0.551 µM.

`CC(C)CN=C(NS(=O)(=O)c1ccccc1)C(Cl)(Cl)Cl`: the AC50 was 16.1 µM.

Regarding `O=C1C=C(NCCN2CCOCC2)C(=O)c2cnccc21`, the AC50 was 5.57 µM.

As for `CCCCS(=O)(=O)/C=C\C=C/S(=O)(=O)CCCC`, the AC50 was 5.46 µM.

As to `Cc1cc([N+](=O)[O-])c2ccccc2[n+]1[O-]`, the AC50 was 5.71 µM.

`C[C@H]1C[C@@H](C)C(=O)[C@@H]([C@H](O)CC2CC(=O)NC(=O)C2)C1`: the AC50 is 0.336 µM.

With `COc1ccccc1-c1cc(C(F)(F)F)nc(S(=O)(=O)CCCC(=O)NCc2ccc(F)cc2)n1`, the AC50 was 5.18 µM.

`CN=c1scc(-c2ccco2)n1/N=C/c1ccc(O)c(O)c1`: the AC50 is 5.23 µM.

For `CC(=O)Cn1ncc(Br)c(Br)c1=O`, the AC50 was 5.62 µM.

With `Cc1ccc(NC2=C/C(=N\S(=O)(=O)c3cccs3)c3ccccc3C2=O)c(C)c1`, the AC50 was 1.32 µM.

With `CCOC(=O)c1c(C)[nH]c2c1-c1ccccc1C(=O)C2=O`, the AC50 was 1.4 µM.

Consider `O=C(Nc1ccccc1Cl)/C(Cl)=C(\Cl)S(=O)c1ccccc1` (configuration not stated), for which the AC50 was 1.81 µM.

`CCOc1ccc(C(=O)COC(=O)Cc2n[nH]c(=O)c3ccccc23)cc1`: the AC50 was > 19.5 µM (inactive).

In the case of `Nc1ncnc2c1ccn2[C@@H]1O[C@H](CO)[C@@H](O)[C@H]1O`, the AC50 is 10.5 µM.

In the case of `CC[C@H]1CN2CCc3cc(OC)c(OC)cc3[C@@H]2C[C@@H]1C[C@H]1NCCc2cc(OC)c(OC)cc21`, the AC50 is 0.526 µM.

As for `C#CC(=O)N(c1cc(OC)ccc1OC)C(C(=O)NC1CCCC1)c1cccs1` (configuration not stated), the AC50 is 5.66 µM.

On to `C=C(C)C(=O)O[C@H]1C/C(C)=C\C(=O)/C=C(\C)[C@H](O)[C@@H]2OC(=O)C(=C)[C@@H]21`, for which the half-maximal activity concentration (AC50) is 15.4 µM.

For the molecule `Cc1ccc(-n2nc(C)c3cc(C(=O)O)sc32)cc1`, the AC50 is > 19.5 µM (inactive).

In the case of `O=C(CCl)Nc1ccc(-c2ccccc2)cc1`, the AC50 is 17.2 µM.

Take `Nc1nc(F)nc2c1ncn2[C@@H]1O[C@H](CO)[C@@H](O)[C@H]1O`: the AC50 was 1.61 µM.

Regarding `CCOC(=O)/C(=C\c1ccc([N+](=O)[O-])cc1)C(=O)c1cc(C(C)=O)c(Nc2ccccc2)s1`, the AC50 was 11.7 µM.

For `NC(=O)C1CCN(CC(=O)Nc2nc(-c3ccccc3)cs2)CC1`, the AC50 is > 19.5 µM (inactive).

For the molecule `Cc1ccc(S(=O)(=O)c2ncccc2[N+](=O)[O-])cc1`, the AC50 is 5.64 µM.

As for `COc1ccc2[nH]c(=O)c(CN(Cc3cccs3)S(=O)(=O)c3c(C)ccc4nsnc34)cc2c1`, the AC50 is > 19.5 µM (inactive).

Consider `O=C(CCl)N(c1ccccc1)C1CCCCC1`, for which the AC50 is 5.43 µM.

In the case of `CCN(c1ccccc1)S(=O)(=O)c1cnc[nH]1`, the AC50 was > 19.5 µM (inactive).

As to `OCCCNc1nccc(-c2cc(Nc3cccc(Cl)c3)ncn2)n1`, the AC50 was 18.7 µM.

Consider `Cn1c(=O)c([N+](=O)[O-])c(Cl)c2ccccc21`, for which the AC50 is 16.9 µM.

On to `O=C(CCl)Nc1cn(-c2ccccc2)nc1-c1ccc(F)cc1`, for which the AC50 was 4.77 µM.

As for `Nc1ccc2oc(C3CCCCC3)nc2c1`, the AC50 is > 19.5 µM (inactive).

`Fc1ccc(-n2cc(-c3ccccc3)c3c(N4CCOCC4)ncnc32)cc1`: the AC50 was > 19.5 µM (inactive).

In the case of `S=C1Cc2ccccc2N1`, the AC50 is 12.4 µM.

On to `O=S(=O)(c1ccc2c(c1)C(=NO)c1cc(S(=O)(=O)N3CCCCC3)ccc1-2)N1CCCCC1`, for which the AC50 is 2.08 µM.

With `Cc1nn(-c2ccccc2)c(N)c1C(O)(CSc1nccn1C)C(F)(F)F` (configuration not stated), the AC50 was > 19.5 µM (inactive).

`CCOC(=O)C1CCN(C(=O)CC(C)c2ccccc2)CC1` (configuration not stated): the AC50 is > 10 µM (inactive).

As for `CCc1ccc(S(=O)(=O)/N=C2\C=C(Nc3ccc(O)cc3)C(=O)c3ccccc32)cc1`, the AC50 was 1.74 µM.
